This note sets out measurements from patent US11478474B2, “2-(3′-(hydroxymethyl)-1-methyl-5-((5-(2-methyl-4-(oxetan-3-yl)piperazin-1-yl)pyridin-2-yl)amino)-6-oxo-1,6-dihydro-[3,4′-bipyridin]-2′-yl)-7,7-dimethyl-7,8-dihydro-2H-cyclopenta[4,5]pyrrolo[1,2-a]pyrazin-1(6H)-one as a BTK inhibitor” (HUTCHISON MEDIPHARMA LIMITED, priority 2020, dated 2022).

Each structure is given as a SMILES string.

As usually defined, the IC50 is the midpoint of a concentration-inhibition curve.

In data set [1] the target is phosphorylated BTK in Ramos cells (Homo sapiens (Human), UniProt Q06187). Nature of the data set: Determination of phosphorylated BTK in Ramos cells (BTK phospho-Y223 HTRF). The data set is classed as cell-based. The note with it: anti-human IgM + hydrogen peroxide stimulation. An outline of the steps: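 Ramos cells starved 2 h in 1% FBS, then treated 1 h with compound (0.00018–3.0 μM, 0.3% DMSO). They were then stimulated 10 min at 37° C. with anti-human IgM (10 μg/mL) plus H2O2 (3.3 mM). Lysates read by BTK phospho-Y223 HTRF (665/615 nm ratio); IC50 fitted from inhibition normalized to stimulated and unstimulated controls.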
Sequence of phosphorylated BTK in Ramos cells (Q06187 whole entry): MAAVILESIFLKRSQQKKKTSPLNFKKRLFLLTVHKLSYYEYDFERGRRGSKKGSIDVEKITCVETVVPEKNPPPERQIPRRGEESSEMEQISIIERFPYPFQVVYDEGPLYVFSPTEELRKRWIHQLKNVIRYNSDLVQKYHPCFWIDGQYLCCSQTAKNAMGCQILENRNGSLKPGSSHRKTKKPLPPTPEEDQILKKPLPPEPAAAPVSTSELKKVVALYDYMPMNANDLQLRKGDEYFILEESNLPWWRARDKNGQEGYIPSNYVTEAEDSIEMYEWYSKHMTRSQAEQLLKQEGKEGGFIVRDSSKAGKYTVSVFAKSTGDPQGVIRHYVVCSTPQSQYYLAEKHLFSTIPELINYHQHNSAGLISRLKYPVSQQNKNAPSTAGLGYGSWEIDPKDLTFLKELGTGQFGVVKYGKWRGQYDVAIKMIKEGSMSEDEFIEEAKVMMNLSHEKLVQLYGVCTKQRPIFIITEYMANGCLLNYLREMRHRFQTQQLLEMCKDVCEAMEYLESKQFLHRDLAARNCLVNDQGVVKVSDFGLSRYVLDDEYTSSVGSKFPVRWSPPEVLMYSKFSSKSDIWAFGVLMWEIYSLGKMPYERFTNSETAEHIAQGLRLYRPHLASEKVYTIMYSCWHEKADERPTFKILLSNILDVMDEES
(Time-resolved FRET reads energy transfer from a long-lived donor to a nearby acceptor.)

Data set [2] is described as follows: Stability test in liver microsomes (mouse). Format: in vitro ADME. The conditions noted are these: mouse liver microsomes 0.5 mg/mL, compound 1 μM, 37° C. The source says:
(§1) Example 5 Stability Test in Liver Microsomes
(§2) Both male CD-1 mouse pooled liver microsomes and male SD rat pooled liver microsomes were purchased from BioreclamationIVT Corporation, USA.
(§3) Phenacetin, glucose-6-phosphate dehydrogenase (G-6-PDH) and nicotinamide adenine dinucleotide phosphate (NADP) were all purchased from Sigma-Aldrich Corporation, USA. Glucose-6-phosphate (G-6-P) was purchased from Shanghai Eybridge Chemical Technology Co., Ltd.
(§4) Ten mM test compound stock solution: a certain amount of test compound was weighed, and dissolved with an appropriate volume of DMSO to prepare a stock solution with a concentration of 10 mM for use.
(§5) Reaction stopping solution: an appropriate amount of internal standard compound phenacetin was dissolved in acetonitrile to prepare a reaction stopping solution with a concentration of 1000 ng/mL for use at room temperature.
(§6) The test compound stock solution was diluted with an organic solvent (usually a mixture of acetonitrile, methanol and water with various ratios, depending on the solubility of the compound, if necessary, 1 N hydrochloric acid or 1 N sodium hydroxide would be added to facilitate solubilization) to the 0.1 mM (the final concentration of the compound in the reaction system was 1 μM) and the concentration percentage of the organic solvents in the incubation system no more than 1% (wherein the percentage of DMSO was required to be no more than 0.1%). An appropriate amount of 100 mM NADP, 500 mM G-6-P and 100 Unit/mL G-6-PDH were mixed and diluted with ultrapure water (the final system contains 1 mM NADP, 5 mM G-6-P and 1 Unit/mL G-6-PDH), pre-incubated in a 37° C. water bath for 10 minutes and then placed on ice for use as a NADPH regeneration solution. 20 mg/mL liver microsomes solution and 200 mM phosphate buffer was mixed, and diluted with ultrapure water to give a liver microsomes solution containing 2.5 mg/mL liver microsomes (the final concentration of the reaction system is 0.5 mg/mL) and 50 mM phosphate buffer. The diluted liver microsomes solution was mixed with 0.1 mM compound solution, a mixture of 100 mM EDTA, 300 mM MgCl2 solution, 200 mM phosphate buffer (the final system was 3 mM MgCl2, 1 mM EDTA and 50 mM phosphate buffer) and water in an appropriate volume was added. Finally, the NADPH regeneration solution was added, then the reaction solution was placed in a 37° C. water bath to start the reaction (the reaction time was 30 minutes), and the reaction was stopped by adding the ice-cold acetonitrile reaction stopping solution containing the internal standard. The 0-minute sample was not incubated in a 37° C. water bath, and its difference from the 30-minute sample further lies in that the ice-cold acetonitrile reaction stopping solution containing the internal standard was added first, and then the NADPH regeneration solution was added. The sample added with the reaction stopping internal standard solution was vortexed and mixed well, and then centrifuged at 4400 rpm for 10 minutes. The supernatant was taken and diluted ten times with 50% methanol for LC-MS/MS analysis.
(§7) LC-MS/MS was used to determine the concentration of the compound in the sample. The percentage of the remaining compound after 30 minutes of incubation comparing with that in the 0-minute sample was calculated using the peak area ratio of the compound to the internal standard as an indicator, to evaluate the metabolic stability of the compound.
(§8) Instrument: API4500, API4000 or LTQ Mass Spectrometer; the liquid phase is UHPLC system (Shimadzu LC-30 AD, model Nexra X2) including liquid delivery unit, column thermostat, detector and autosampler; or Agilent 1200 Binary Pump series HPLC and CTC Autosampler.
(§9) Chromatographic column: Waters XSELECT Hss T3 C18 (2.5 μm, 2.1×50 mm) or […] (5 μm, 2.0×50 mm)
(§10) A: water with 0.1% FA (formic acid) (with or without 0.1% ACN (acetonitrile))
(§11) B: acetonitrile with 0.1% FA (formic acid).
(In general: Liver microsomes are vesicles of endoplasmic reticulum, rich in cytochrome P450 enzymes.)

Data set [3] is described as follows: Stability test in liver microsomes (rat). Format: in vitro ADME.
From the text: as §1, §2, §3, §4, §5, §6, §7, §8, §9, §10, §11

Data set [4] relates to B cell activation in rat whole blood. The experiment in a line: Determination of B cell activity in whole blood of rats (anti-rat IgD induced B cell activation, flow cytometry). Format: cell-based. The conditions noted are these: anti-rat immunoglobulin D 10 μg/mL, 18 hours, inhibition of B cell activation. As for the experimental part:
Example 4 Determination of B Cell Activity in Whole Blood of Rats
1. Reagents and Materials
Peripheral whole blood of female Wistar rats;
In the determination of the compound activity, the collected peripheral whole blood of rat was added to a 96 well plate at 80 μL/well and cultured in a 5% CO2, 37° C. cell incubator. After half an hour, the test compound was diluted with PBS in a 3-fold gradient to the corresponding concentrations, and then the diluted test compound with different concentrations was added to the culture system of rat whole blood at 10 μL/well (the final concentration of the test compound was 1.0, 0.33, 0.11, 0.037, 0.012, 0.0041, 0.0014, and 0.0005 μM, the final concentration of DMSO was 0.3%, double replicate wells), or the control solution (0.3% DMSO, 6 replicate wells) was added to the corresponding well at 10 μL/well, which were incubated in the cell incubator for one hour. Then 10 μL/well of anti-rat immunoglobulin D diluted in PBS (the final concentration was 10 μg/mL) was add to the treating wells of the test compound and control wells for anti-rat immunoglobulin D, or 10 μL/well of PBS was added to the negative control wells, which were mixed well to continue the culture in a 5% CO2, 37° C. cell incubator, and incubated for 18 hours.
On the second day, the 96-well plates were taken out and the flow cytometry antibody mixture (the final concentration of anti-rat B220PE antibody was 1 μg/mL and the final concentration of anti-rat CD86 FITC antibody was 1 μg/mL) diluted with PBS was added to each well of plate, which were incubated for 30 minutes in the dark, and then 50 μL of blood from each well was pipetted to the freshly prepared 500 μL of lysis buffer to lyse red blood cells. The plates were shaken for 20 minutes, centrifuged to remove the supernatant, then washed, fixed, and detected on a flow cytometer.
The B cell activation in the sample was determined by flow dyeing method.
The average value of the proportion of activated B cells in the wells with anti-rat immunoglobulin D but without the test compound was used as the control treating well for anti-rat immunoglobulin D, and the average value of the proportion of activated B cells in the wells without immunoglobulin D stimulation and without the test compound was used as the negative control treating well. According to the B cell activation ratio in each well, the inhibition ratio (%) of each concentration was calculated, and then the IC50 value was obtained by using the 205 model in XL-Fit 5.3 software (ID Business Solutions Limited).
The inhibition ratio is calculated as follows: inhibition ratio (%)=100%−{(treating well for the test compound−negative control treating well)/(control treating well for anti-rat immunoglobulin D−negative control treating well)}×100%, wherein,
Treating well for the test compound: represents the B cell activation ratio in rat whole blood treated with anti-rat immunoglobulin D and the test compound.
Control treating well for anti-rat immunoglobulin D: represents the B cell activation ratio in rat whole blood treated with anti-rat immunoglobulin D but without the test compound.
Negative control treating well: represents the B cell activation ratio in rat whole blood without the test compound and without immunoglobulin stimulation.
Through the above-mentioned test, the compound of the present invention has a potency to inhibit B cell activation in rat whole blood.
On the technique in general: In flow cytometry, cells or beads pass a laser one at a time.

Data set [5] has as its system TMD8 subcutaneous xenograft (human diffuse large B-cell lymphoma cells). The experiment in a line: In vivo efficacy in TMD8 subcutaneous xenograft model in nude mice. As for the experimental part: Example 7 Evaluation of In Vivo Efficacy of the Compound of the Present Invention in TMD8 Subcutaneous Xenograft Model
Objects: To investigate the anti-tumor activity of compound 19 in TMD8 subcutaneous xenograft model in nude mice.
Methods: Human diffuse large B-cell lymphoma cells TMD8 (acquired under license from Tokyo Medical and Dental University) were cultured in RPMI1640 medium containing 10% fetal bovine serum. 1×10^7 tumor cells suspended in RPMI1640 medium mixed well with Matrigel (purchased from Corning, USA) at 1:1 were implanted subcutaneously on the right flank of each male Balb/c nude mouse (Shanghai Lingchang Biotechnology Co., Ltd.), pretreated with cyclophosphamide (at a dose of 200 mg/kg, intraperitoneal injection 24 h before cell inoculation). […] All drugs were administered by oral gavage, once a day, and the vehicle control group was administered orally with 0.5% hydroxypropyl methylcellulose solution (pH=3).
Tumor volumes (tumor volume=0.5×long diameter×short diameter^2) and body weights of the mice were measured regularly. The tumor volume change and body weight were statistically analyzed, with p<0.05 considered statistically significant, and p<0.01 as extremely statistically significant.
The anti-tumor activity was evaluated by tumor growth inhibition. Tumor growth inhibition (TGI %)=100%×(1−(TVDt (treatment group)−TVD0 (treatment group))/(TVDt (control group)−TVD0 (control group))) Relative body weight (RBW %)=BWDt/BWD0×100%
wherein, TVD0 represents the tumor volume obtained at first measurement, namely, the tumor volume before drug administration, and TVDt represents the tumor volume on the day of measurement; BWD0 represents the body weight of the animal obtained at first measurement, namely, the body weight of the animal before drug administration; BWDt represents the body weight of the animal on the day of measurement.

The mark [6] stands for this setting: 50 mg/kg oral gavage once a day, Day 21.

On to `Cn1cc(-c2ccnc(-n3ccn4c5c(cc4c3=O)CC(C)(C)C5)c2CO)cc(Nc2ccc(N3CCN(C4COC4)CC3=O)cn2)c1=O` [Compound 34], for which the IC50 in data set [1] turned out to be 10 nM. The “MLM (percentage of the remaining compound after 30 minutes of incubation)” value in data set [2] stood at 89.5%. In data set [3] (rat & mouse liver microsomes, 30 minutes), the “stability in rat & mouse liver microsomes compared with the reference GDC-0853” value was “better than that of the reference GDC-0853”. Moreover, the “RLM (percentage of the remaining compound after 30 minutes of incubation)” value in data set [3] (rat liver microsomes 0.5 mg/mL, compound 1 μM, 37° C.) is approximately 100%.
In the case of `C[C@H]1CN(C2COC2)CCN1c1ccc(Nc2nc(-c3ccnc(-n4ccn5c6c(cc5c4=O)CC(C)(C)C6)c3CO)cn(C)c2=O)nc1` [Compound 20], the IC50 in data set [4] was found to be 462 nM; in data set [1], 17 nM.
The matching figures for `CC1(C)Cc2cc3c(=O)n(-c4nccc(-c5cc(Nc6cc7n(n6)CCN(C6COC6)C7)c6ncnn6c5)c4CO)ccn3c2C1` [Compound 13]: 5 nM and 1 nM.
Turning to `CCn1cc(Nc2cc(-c3ccnc(-n4ccn5c6c(cc5c4=O)CC(C)(C)C6)c3CO)cn(C)c2=O)nn1` [Compound 24], the IC50 was determined as 85 nM in data set [4] and 14 nM in data set [1].
Take `C=CC(=O)N1CCC[C@@H](n2nc(-c3ccc(Oc4ccccc4)cc3)c3c(N)ncnc32)C1` [Ibrutinib, reference compound]: the “Number of animals with CR (Day 21)” value in data set [5] (50 mg/kg oral gavage once a day, 8 animals per group) is on record as 1. Moreover, in data set [5] (50 mg/kg oral gavage once a day, Day 0, before drug administration), the “Tumor volume (mm^3) ± SD Day 0” value is reported as 397 ± 42 mm^3. In data set [5] (setting [6]), the “TGI (%)” value is reported as 42.4% and the “Tumor volume (mm^3) ± SD Day 21” value came out at 2027 ± 991 mm^3. In addition, in data set [5] (50 mg/kg oral gavage once a day, relative body weight), the “RBW (%) (Day 21)” value is reported as 111.4%. For the same compound, in data set [5] (50 mg/kg, oral gavage once a day, 21 days after treatment, vs vehicle control), the “Tumor growth inhibition (TGI %)” value is listed as 42.4%.
Regarding `CN1CCn2nc(Nc3cc(-c4ccnc(-n5ccn6c7c(cc6c5=O)CC(C)(C)C7)c4CO)cn4ncnc34)cc2C1` [Compound 16], the IC50 in data set [4] turned out to be 8 nM; in data set [1], 2 nM.
The matching figures for `CCn1cc(Nc2cc(-c3ccnc(-n4ccn5c6c(cc5c4=O)CC(C)(C)C6)c3CO)nn(C)c2=O)nn1` [Compound 25]: 29 nM and 24 nM.
